Assay results as given in patent US5532231A, “Antibacterial agent” (priority 1994, dated 1996).

Legend:
Erwinia herbicola = assay: Antimicrobial spectrum, liquid media, viable cell count; format: cell-based; conditions: saturating concentrations
Method: (§1) Saturated solutions of TA and Focusin were prepared by adding 1.14 μg TA and 7 μg Focusin to 1 ml LB (final conc. of 1% ethanol). About 10^5 bacteria of various strains were then added. The control was bacteria in the same medium with no antibacterial agents. The bacteria were introduced at 37° C. with shaking at 100 rpm. When the control became turbid, viable cell count was performed on LB agar plates. Growth inhibition is presented as percentage of the no antibiotic control.

Staphylococcus albus = assay: as above; format: cell-based
Method: as §1

Helicobacter pilori = assay: as above; format: cell-based; conditions: saturating concentrations
Method: as §1

Enterobacter = assay: as above; format: cell-based; conditions: saturating concentrations
Method: as §1

Bacillus subtilis = assay: as above; format: cell-based; conditions: saturating concentrations
Method: as §1

Proteus vulgaris = assay: as above; format: cell-based; conditions: saturating concentrations
Method: as §1

Serratia marcescens = assay: as above; format: cell-based; conditions: saturating concentrations
Method: as §1

Klebsiella Gr47 = assay: as above; format: cell-based; conditions: saturating concentrations; hospital strain
Method: as §1

Pseudomonas aeruginosa = assay: as above; format: cell-based; conditions: saturating concentrations
Method: as §1

Klebsiella pneumoniae = assay: as above; format: cell-based; conditions: saturating concentrations; hospital strain
Method: as §1

Citrobacter diversus = assay: as above; format: cell-based; conditions: saturating concentrations
Method: as §1

Providencia strautii = assay: as above; format: cell-based; conditions: saturating concentrations
Method: as §1

Klebsiella sp = assay: as above; format: cell-based; conditions: saturating concentrations; hospital strain
Method: as §1

Salmonella thyphimurium = assay: as above; format: cell-based; conditions: saturating concentrations
Method: as §1

Staphylococcus aureas = assay: as above; format: cell-based, Staphylococcus aureus; conditions: saturating concentrations
Method: as §1

[1] = test system: Gram-positive and Gram-negative bacteria; conditions: literature; cited from earlier work
[2] = format: physicochemical
Method: Focusin and TA at concentrations of 3 mg/ml were diluted either in ethanol or in saline containing 1% ethanol to yield a final concentration in each case of 30 μg/ml. The solutions were mixed at 37° C. for one hour under shaking, and then were centrifuged at 5000 g for 10 minutes. Several samples were taken from the supernatants of the tubes and were applied on disc filters in order to determine the concentration of the antibacterial agents in the saline and ethanol solutions, by the paper disc bioassay method.

E. coli ESS Kan^r [3] = assay: Paper disc filter antibiotic assay (zone of inhibition); format: cell-based, Escherichia coli; conditions: paper disc
Method: Escherichia coli ESS Kan^r, is a kanamycin resistant strain of E. coli ESS, derived by transducing E. coli ESS with P1:TnV, Kan^r. This strain was used for the standard antibiotic assays.
LB Kan medium was solidified by 1.5% Bacto agar (Difco). For the antibiotic assay, Nutrient Broth agar plates were used. NB medium is 0.8% Nutrient Broth (Difco) containing 0.5% NaCl (Merck). NB was solidified by 1.8% Bacto agar (Difco). The NB plates were overlaid by 3.5 ml NB soft agar (0.9% Bacto agar) mixed with 0.1 ml E. coli ESS Kan^r overnight culture.
(§2) Antibiotic activity against E. coli ESS Kan^r was determined by the paper disc filter assay (Leo et al., 1945). Unknown quantities of antibiotic TA or Focusin, dissolved in ethanol, saline or NB were applied to paper disc filters (6 mm diameter; Schleicher and Schull). After allowing the ethanol to evaporate in the hood for about 15 mins, the dry filters were placed on nutrient broth plates which had been overlaid with an overnight culture of E. coli ESS Kan^r as described above.
(§3) The diameter of the zone of inhibition was recorded after 18 hours in incubation at 37° C. The concentration of the antibacterial agents were determined from a standard inhibition curve prepared with known quantities of TA and Focusin.

E. coli K-12 = assay: Antimicrobial spectrum, liquid media, viable cell count; format: cell-based, Escherichia coli; conditions: saturating concentrations
Method: as §1

E. coli ESS [4] = assay: as above; format: cell-based, Escherichia coli; conditions: saturating concentrations
Method: as §1

E. coli ESS Kan^r [5] = assay: Sensitivity to combined exposure to light and air (remaining activity by paper disc bioassay); format: physicochemical, Escherichia coli
Method: as §2, §3
100 ng of TA and Focusin dissolved in ethanol were applied to paper filters and allowed to dry in a hood for 15 mins. The filters were then exposed to light from a fluorescent lamp in the hood; the distance from the lamp to the filters was approximately 40 cm. The controls were placed in the dark under a plastic box within the hood.
After exposure of the filters to the light for varying periods of time, the remaining activity of the agents was measured by the paper disc bioassay and the results are shown in the following Table 1: […]

[6] = test system: severe gingivitis and plaque; conditions: humans; cited from earlier work
E. coli ESS [7] = assay: Bactericidal effect when bound to mouse tissues; format: cell-based, Escherichia coli; conditions: 4 μg TA or 20 μg Focusin, 5 h
Method: Two mice were sacrificed by exposure to ether. The bladder, eyes, intestines, lungs, heart, teeth, liver, spleen and kidneys were removed by dissection. Each experimental set consisted of three test tubes. A piece of each tissue type was placed in each of the three test tubes. The amount of tissue per tube were as follows: bladder 1/3, eye 1/2, intestine 1 cm, lung 1/2, heart 1/3, fang tooth 1/2, liver 1/3, spleen 1/3 and kidney 1/2. One test tube contained a control tissue which was treated only with the solvent used for dissolving the antibacterial agent, usually 50% ethanol. The second and third test tubes contained tissues were treated with 4 μg TA or 20 μg Focusin, respectively.
Following application of the antibacterial agent or the control solution, the tissues were allowed to dry in a hood for 30 mins., and then placed in the test tubes.
One milliliter of sterile saline was then added to each test tube and the tubes were then incubated with shaking (50 rpm) at 37° C. for one hour. The amount of antibacterial agent that was released to the saline was measured following chloroform extraction by the disc filter assay.
The tissues were then transferred to exponentially growing cultures of E. coli ESS in NB at a concentration of 10^5 cells/ml. Incubation was at 37° C. and continued for 5 hours, following which the number of viable cells was checked.

Mycobacteria smegmatis = assay: Antimicrobial spectrum, liquid media, viable cell count; format: cell-based, Mycobacterium smegmatis; conditions: saturating concentrations
Method: as §1

CCCC1OC(=O)C(C)CC(C)CCCCC(=O)CCCC(CC)C=CC=C(COC)CCC(O)C(O)CC(O)CNC1=O (stereo not drawn) [TA, reference compound]
killing (Erwinia herbicola): 100%
incubation time after which the strain began to show sensitivity (Staphylococcus albus; saturating concentrations): > 46 h
killing (Staphylococcus albus; saturating concentrations (TA)): 83%
killing (Helicobacter pilori): 100%
killing (Enterobacter): 100%
killing (Bacillus subtilis): 100%
killing (Proteus vulgaris): 100%
killing (Serratia marcescens): 100%
killing (Klebsiella Gr47): 100%
killing (Pseudomonas aeruginosa): 0%
killing (Klebsiella pneumoniae): 100%
killing (Citrobacter diversus): 100%
killing (Providencia strautii): 100%
killing (Klebsiella sp): 100%
killing (Salmonella thyphimurium): 60%
killing (Staphylococcus aureas): 100%
growth inhibition (in words) [1]: capable of inhibiting growth of a variety of Gram-positive and Gram-negative bacteria
mode of growth inhibition (in words) [1]: lysis of growing bacteria as a result of blocking of cell wall synthesis
solubility in ethanol [2]: completely soluble
solubility in saline ([2]; saline with 1% ethanol, 1 h): about 1.14 μg/ml
amount giving an inhibition zone of 11 mm (E. coli ESS Kan^r [3]; zone 11 mm): 64 ng
amount required to obtain a zone of inhibition of about 2 mm (E. coli ESS Kan^r [3]; zone about 2 mm): 7.5 ng
killing (E. coli K-12): 100%
killing (E. coli ESS [4]): 100%
activity after exposure to light and air (E. coli ESS Kan^r [5]; 0 hours): 100%
activity after exposure to light and air (E. coli ESS Kan^r [5]; 1 hour): 70%
activity after exposure to light and air (E. coli ESS Kan^r [5]; 4 hours): 63%
activity after exposure to light and air (E. coli ESS Kan^r [5]; 6 hours): 26%
activity after exposure to light and air (E. coli ESS Kan^r [5]; 8 hours): 21%
activity after exposure to light and air (E. coli ESS Kan^r [5]; 20 hours): 19%
degradation at combined exposure to light and air (E. coli ESS Kan^r [5]; after 20 hours): 81%
degradation at combined exposure to light and air (E. coli ESS Kan^r [5]; after one hour, 60 min): 30%
effect on gingivitis and plaque (in words) [6]: to treat severe gingivitis and to reduce plaque in humans
Inhibition % by the treated tissue (E. coli ESS [7]; bladder): 100%
Inhibition % by the treated tissue (E. coli ESS [7]; heart): 100%
Inhibition % by the treated tissue (E. coli ESS [7]; intestine): 99%
Inhibition % by the treated tissue (E. coli ESS [7]; kidney): 100%
Inhibition % by the treated tissue (E. coli ESS [7]; liver): 96%
Inhibition % by the treated tissue (E. coli ESS [7]; lungs): 100%
Inhibition % by the treated tissue (E. coli ESS [7]; spleen): 100%
Inhibition % by the treated tissue (E. coli ESS [7]; teeth): 100%
killing (Mycobacteria smegmatis): 0%
